# Tests used:
# [1] = mice; compared with testosterone administered by the same route; cited from earlier work
# [2] = orchiectomised male rats
structure (smiles),measurement,setting,value
"C[C@]12CC[C@H]3[C@@H](CCC4=CC(=O)CC[C@@]43C)[C@@H]1CC[C@@H]2O[C@@H]1O[C@H](CO)[C@@H](O)[C@H](O)[C@H]1O [testosterone glucoside, Testosterone-17-β-1′-β′-D-glucopyranose]",biological activity in vivo,[1],"very little activity in vivo, and certainly less than testosterone"
same,"bioavailability, oral","[2]; 1.56 mg orally daily for 6 days, serum testosterone 4 hours after final dose",bioavailable when given orally
same,metabolism to testosterone,"[2]; oral or intramuscular, daily for 6 days",readily metabolised to testosterone

# Source: patent US6916791B2, “Androgen derivatives and uses thereof” (Strakan Limited, priority 1999, dated 2005)
